Holding throughout (experiment): relative viability (nuclei count vs DMSO), 5 days (fraction); higher = more cells survive
Compound in the assay “Tosedostat + Luminespib”: CC(C)C[C@@H](C(=O)N[C@H](C(=O)OC1CCCC1)c1ccccc1)[C@H](O)C(=O)NO [Tosedostat] + CCNC(=O)c1noc(-c2cc(C(C)C)c(O)cc2O)c1-c1ccc(CN2CCOCC2)cc1 [Luminespib] (partner 0.01 µM)
The gist of the method: (§1)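 Lung cancer cell lines were seeded in 1536-well plates and dosed by pin tool the next day, with either a single drug or a fixed anchor-drug dose combined with five library-drug doses (not always all listed) spaced in √10 steps. Five days later, one step fixed the cells and stained their nuclei (final 0.05% Triton X-100, 1% formaldehyde, 1 ug/ml Hoechst), and nuclei were counted on 4× images. Relative viability is the nuclei count in treated wells divided by the count in vehicle wells, and each value is the median of duplicate plates.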

Compound in assay [1]: CC1=NN=C(O1)C2=NN=C(C=C2)N3CCC(CC3)OC4=C(C=CC(=C4)F)Cl + Nc1ncn([C@H]2C[C@H](O)[C@@H](CO)O2)c(=O)n1 [Decitabine] (partner 2 µM)
The gist of the method:
as §1

Compound in assay [2]: CC1=NN=C(O1)C2=NN=C(C=C2)N3CCC(CC3)OC4=C(C=CC(=C4)F)Cl + CC(=O)Nc1cccc(-n2c(=O)n(C3CC3)c(=O)c3c(Nc4ccc(I)cc4F)n(C)c(=O)c(C)c32)c1 [Trametinib] (partner 0.02 µM)
The gist of the method: as §1

Compound in assay [3]: CC1=NN=C(O1)C2=NN=C(C=C2)N3CCC(CC3)OC4=C(C=CC(=C4)F)Cl + C[C@]1(O)C[C@@H](c2nc(-c3ccc4ccc(-c5ccccc5)nc4c3)c3c(N)nccn32)C1 [Linsitinib] (partner 1 µM)
Summed up: as §1

For SK-LU-1, the relative viability came to 0.213 with Tosedostat + Luminespib (first compound 0.02 µM); 0.211 with Tosedostat + Luminespib (first compound 0.06325 µM); 0.217 in the assay with Tosedostat + Luminespib (first compound 0.2 µM); 0.2 with Tosedostat + Luminespib (first compound 0.6325 µM); 0.188 with Tosedostat + Luminespib (first compound 2 µM); 0.667 in assay [1] (first compound 0.253 µM). Besides, the relative viability in assay [1] (first compound 0.8 µM) came to 0.517; in assay [1] (first compound 2.53 µM) it was 0.595; in assay [1] (first compound 8 µM) it was 0.557; in assay [2] (first compound 0.253 µM) it was 0.47; in assay [2] (first compound 0.8 µM), 0.417; in assay [2] (first compound 2.53 µM), 0.531. For the same cell line, the relative viability in assay [2] (first compound 8 µM) is 0.407; in assay [3] (first compound 0.253 µM), 1.03; in assay [3] (first compound 0.8 µM), 0.852; in assay [3] (first compound 2.53 µM), 1.02; in assay [3] (first compound 8 µM), 0.589.
As to SK-MES-1, the relative viability with Tosedostat + Luminespib (first compound 0.02 µM) was 0.813; in the assay with Tosedostat + Luminespib (first compound 0.06325 µM), 0.813; in the assay with Tosedostat + Luminespib (first compound 0.2 µM) it was 0.898; in the assay with Tosedostat + Luminespib (first compound 0.6325 µM) it was 0.789; with Tosedostat + Luminespib (first compound 2 µM) it was 0.74; in assay [1] (first compound 0.253 µM), 0.369. For the same cell line, the relative viability in assay [1] (first compound 0.8 µM) stood at 0.388; in assay [1] (first compound 2.53 µM), 0.356; in assay [1] (first compound 8 µM), 0.326; in assay [2] (first compound 0.253 µM), 0.486; in assay [2] (first compound 0.8 µM) it was 0.573; in assay [2] (first compound 2.53 µM), 0.507. In addition, the relative viability in assay [2] (first compound 8 µM) was found to be 0.501; in assay [3] (first compound 0.253 µM), 0.848; in assay [3] (first compound 0.8 µM) it was 0.8; in assay [3] (first compound 2.53 µM) it was 0.828; in assay [3] (first compound 8 µM), 0.815.
For SW 1573, the relative viability with Tosedostat + Luminespib (first compound 0.02 µM) came to 0.219; with Tosedostat + Luminespib (first compound 0.06325 µM), 0.215; with Tosedostat + Luminespib (first compound 0.2 µM) it was 0.456; with Tosedostat + Luminespib (first compound 0.6325 µM), 0.411; with Tosedostat + Luminespib (first compound 2 µM), 0.277; in assay [1] (first compound 0.253 µM), 0.517. For the same cell line, the relative viability in assay [1] (first compound 0.8 µM) came out at 0.471; in assay [1] (first compound 2.53 µM), 0.482; in assay [1] (first compound 8 µM), 0.378; in assay [2] (first compound 0.253 µM), 0.512; in assay [2] (first compound 0.8 µM), 0.43; in assay [2] (first compound 2.53 µM), 0.445. Also, the relative viability in assay [2] (first compound 8 µM) turned out to be 0.306; in assay [3] (first compound 0.253 µM), 0.805; in assay [3] (first compound 0.8 µM), 0.727; in assay [3] (first compound 2.53 µM), 0.74; in assay [3] (first compound 8 µM) it was 0.673.

The record behind these values is the supplement of paper PMC10307832.
